Experimental data reported in patent publication US7692004B2, “Use of metal complex compounds as oxidation catalysts” (Ciba Specialty Chemicals Corporation, priority 2001, dated 2010).

What was measured:
[1] = Bleaching action in washing agents (LINITEST, DY increase); conditions: 1:1 Mn complex with ligand, H2O2 8.6 mmol/l, 30 minutes at 40° C.
Method: 7.5 g of white cotton fabric and 2.5 g of tea-stained cotton fabric are treated in 80 ml of washing liquor. The liquor contains a standard washing agent (ECE, 456 IEC) in a concentration of 7.5 g/l. The hydrogen peroxide concentration is 8.6 mmol/l. […] The washing process is carried out in a steel beaker in a LINITEST apparatus for 30 minutes at 40° C. For evaluating the bleaching results, the increase in the lightness DY (difference in lightness according to CIE) of the stains brought about by the treatment is determined spectrophotometrically in comparison with values obtained without the addition of catalyst.

[2] = Cleaning performance on soiled surfaces at 53° C.; conditions: for Difference (rating minus rating of reference): 1:1 manganese complex 7.3 μM, 53° C., reference = catalyst-free system; for Rating: 1:1 manganese complex with ligand 7.3 μM, H2O2 1.1 mM, pH 10.0, 23° to 53° C., visual scale 1 (no cleaning) to 10 (clean)
Method: (§1) A tea-stained cup is filled with 100 ml of a buffer solution (10 mM carbonate, pH=10.0) containing 1.1 mM of hydrogen peroxide and 7.3 μM of 1:1 manganese complex (prepared as described in Application Example 2). Using a thermostat, the temperature of the solution is raised from 23° to 53° C. over a period of 12 minutes and maintained at the final temperature for 23 minutes. After rinsing and drying in air, the results are evaluated visually on a scale of 1 (no cleaning) to 10 (clean). The catalyst-free system is used as reference.

[3] = Decomposition of hydrogen peroxide (iodometric); conditions: 1:1 manganese complex with ligand 7.3 μM, initial H2O2 1.1 mM
Method: as §1
The procedure is as in Application Example 3 but the consumption of H2O2 is determined iodometrically.

[4] = Activity of the manganese catalysts after the bleaching cycle; conditions: for Difference DDY: versus H2O2 without Mn complex
Method: 7.5 g of white cotton fabric and 2.5 g of tea-stained cotton fabric are treated in 80 ml of washing liquor. The liquor contains a standard washing agent (ECE, 456 IEC) in a concentration of 7.5 g/l. The hydrogen peroxide concentration is 8.6 mmol/l. The catalyst concentration (1:1 complex of manganese(II) chloride tetrahydrate with the ligand in question, prepared in methanolic solution with the addition of a small amount of lithium hydroxide) is 50 μmol/l. The washing process is carried out in a steel beaker in a LINITEST apparatus for 30 minutes at 40° C. For evaluating the bleaching results, the increase in the lightness DY (difference in lightness according to CIE) of the stains brought about by the treatment is determined spectrophotometrically in comparison with values obtained without the addition of catalyst.
The procedure as described in Application Example 2 is carried out for the 1st cycle, the cotton fabric is removed and for the 2nd cycle the procedure is carried out afresh with a new, as yet untreated cotton fabric. The DY values are determined as described in Application Example 2.

[5] = Action as catalyst for DTI (dye transfer inhibition); conditions: 1:1 manganese complex 50 μmol/l; H2O2 8.6 mmol/l; Direct Brown 172 10 mg/l; 30 minutes at 40° C.
Method: 7.5 g of white cotton fabric are treated in 80 ml of washing liquor. The liquor contains a standard washing agent (ECE, 456 IEC) in a concentration of 7.5 g/l. The hydrogen peroxide concentration is 8.6 mmol/l. The catalyst concentration (of manganese(II) chloride tetrahydrate with the ligand, prepared in methanolic solution with the addition of a small amount of lithium hydroxide) is 50 μmol/l, and a solution of the test dye Direct Brown 172 having 10 mg/l of the 250% formulation. The washing process is carried out in a steel beaker in a LINITEST apparatus for 30 minutes at 40° C. For testing the activity of the catalysts, the DTI activity is determined.
The reflection spectra of the samples were measured using a SPECTRAFLASH 2000 and converted into lightness values (D65/10) in accordance with a standard CIE procedure.

[6] = Catalytic action for the epoxidation of olefins; conditions: ligand 0.05 mmol with manganese(II) acetate tetrahydrate 0.04 mmol, sodium ascorbate, H2O2; 14 hours at room temperature; by 1H-NMR
Method: 17 mg (0.05 mmol) of 2-[(2-hydroxy-ethyl)-[2,2′;6′,2″]terpyridin-4′-yl-amino]-ethanol (L7, Example 7), 10 mg (0.04 mmol) of manganese(II) acetate tetrahydrate and 0.32 mmol of sodium ascorbate are added to a solution of 1.09 ml (10 mmol) of ethyl acrylate in 0.5 ml of acetonitrile. The mixture is cooled in an ice bath and a 30% strength hydrogen peroxide solution (2.27 g, 20 mmol) is added dropwise thereto in the course of 20 minutes. The mixture is then left for 14 hours at room temperature, then diluted with diethyl ether and the phases are separated. The organic extract is dried over sodium sulfate, filtered and concentrated. The catalytic turnover number for the epoxide formed, ethyl oxirane-2-carboxylate, is determined by comparing the intensity of the epoxide methine proton at 3.34-3.38 ppm with the ligand signal L7 at 8.53 ppm as reference and is 35±8. Ethyl oxirane-2-carboxylate, epoxide signals ^1H-NMR (360 MHz, CDCl3): 2.68-2.89 (m, 2H, CH2); 3.34-3.38 (m, 1H, CH). Without the addition of ligand, epoxide cannot be detected.

[7] = Catalytic bleaching of cellulose; conditions: catalytically bleached; 20 μM catalyst, 8.6 mM H2O2, pH 10.0, 40° C., 30 minutes; untreated sample 63.4
Method: 20 g of cellulose [TPP-CT CSF129, Ref. No. P-178635 (ISO 57.4)] are steeped in a litre of water for 65 hours and then stirred in a mixer for 2 minutes to give a paste-like pulp. A bleaching bath containing 50 g of the pulp so prepared in 180 ml of water, 100 μM of Dequest 2041 (sequestering agent), 8.6 mM of hydrogen peroxide and 20 μM of catalyst from Example 35 is maintained at 40° C. for 30 minutes. At the same time 1N sodium hydroxide solution is metered-in in such a manner that a pH of 10.0 is maintained. Filtration and air-drying are then carried out. A sample that has been compressed to form a circular sheet of 10 cm diameter is then tested for the lightness Y obtained (according to CIE, reflectance spectroscopy).

[8] = Cleaning performance on soiled surfaces at 23° C.; conditions: 0.16 g/l, constant 23° C., 45 minutes
Method: as §1
The procedure is as in Application Example 3 but the cleaning is carried out at a constant temperature of 23° C. (duration: 45 minutes).

[9] = 50 μmol/l, ECE washing agent 7.5 g/l, versus no catalyst

SMILES | DY increase [1, 9] | Difference (rating minus rating of reference) [2] | Rating [2] | also measured
O=c1cc(-c2ccccn2)[nH]c(-c2ccccn2)c1 [Ligand L1, 1′H-[2,2′;6′,2″]Terpyridin-4′-one] | 5.0 | 1.9 | 5.0 (3.1) | Residual H2O2 ([3]; procedure of Application Example 3): 0.73 mM; Consumption ([3]; H2O2 consumption): 34%
NNc1cc(-c2ccccn2)nc(-c2ccccn2)c1 [Ligand L4, [2,2′;6′,2″]Terpyridin-4′-yl-hydrazine] | 5.0 |  |  | 
CN(CCO)c1cc(-c2ccccn2)nc(-c2ccccn2)c1 [Ligand L5, 2-(Methyl-[2,2′;6′,2″]terpyridin-4′-yl-amino)-ethanol] | 5.2 |  |  | 
c1ccc(-c2cc(N3CCCC3)cc(-c3ccccn3)n2)nc1 [Ligand L6, 4′-Pyrrolidin-1-yl-[2,2′;6′,2″]terpyridine] | 5.8 | 3.9 | 7.2 (3.3) | 
OCCN(CCO)c1cc(-c2ccccn2)nc(-c2ccccn2)c1 [Ligand L7, 2-[(2-Hydroxy-ethyl)-[2,2′;6′,2″]terpyridin-4′-yl-amino]-ethanol] | 5.6 | 3.6 | 6.9 (3.3) | Bleaching value with H2O2 and the 1:1 Mn complex (DY) ([4]; 1st cycle): DY = 23.0; Difference DDY ([4]; 1st cycle): 8.1; Bleaching value with H2O2 and the 1:1 Mn complex (DY) ([4]; 2nd cycle, same liquor, new fabric): DY = 19.0; Difference DDY ([4]; 2nd cycle): 8.0; DTI activity a [5]: 90%; Catalytic turnover number for the epoxide formed, ethyl oxirane-2-carboxylate [6]: 35±8
CN1CCN(c2cc(-c3ccccn3)nc(-c3ccccn3)c2)CC1 [Ligand L8, 4′-(4-Methyl-piperazin-1-yl)-[2,2′;6′,2″]terpyridine] | 5.0 |  |  | 
c1ccc(-c2cc(N3CCCCCC3)cc(-c3ccccn3)n2)nc1 [Ligand L9, 4′-Azepan-1-yl-[2,2′;6′,2″]terpyridine] | 3.8 |  |  | 
c1ccc(-c2cc(N3CCCCC3)cc(-c3ccccn3)n2)nc1 [Ligand L10, 4′-Piperidin-1-yl-[2,2′;6′,2″]terpyridine] | 4.4 | 2.1 | 5.2 (3.1) | 
c1ccc(-c2cc(N3CCOCC3)cc(-c3ccccn3)n2)nc1 [Ligand L11, 4′-Morpholin-4-yl-[2,2′;6′,2″]terpyridine] | 5.5 | 2.4 | 5.7 (3.3) | 
CCOc1ccnc(-c2cc(=O)cc(-c3cc(OCC)ccn3)[nH]2)c1 [Ligand L17, 4,4″-Diethoxy-1′H-[2,2′;6′,2″]terpyridin-4′-one] | 5.3 |  |  | 
O=c1cc(-c2cc(N3CCCC3)ccn2)[nH]c(-c2cc(N3CCCC3)ccn2)c1 [Ligand L18, 4,4″-Di-pyrrolidin-1-yl-1′H-[2,2′;6′,2″]terpyridin-4′-one] | 3.0 |  |  | 
CN(CCO)c1ccnc(-c2cc(=O)cc(-c3cc(N(C)CCO)ccn3)[nH]2)c1 [Ligand L19, 4,4″-Bis[(2-hydroxy-ethyl)-methyl-amino]-1′H-[2,2′;6′,2″]terpyridin-4′-one] |  |  |  | DY increase ([1]; half concentration used): 5.3^1)
CN(CCO)c1ccnc(-c2cc(N(C)CCO)cc(-c3cc(N(C)CCO)ccn3)n2)c1 [Ligand L25, 2-({4′,4″-Bis[(2-hydroxy-ethyl)methyl-amino]-[2,2′;6′,2″]terpyridin-4-yl}-methylamino)-ethanol] | 6.2 |  |  | 
CCOc1ccnc(-c2cc(N(CCO)CCO)cc(-c3cc(OCC)ccn3)n2)c1 [Ligand L28, 2-[(4,4″-Diethoxy-[2,2′;6′,2″]terpyridin-4′-yl)-(2-hydroxy-ethyl)-amino]-ethanol] | 4.3 | 2.2 | 5.2 (3.0) | 
COc1ccccc1-c1cccc(-c2cccc(-c3cccc(-c4ccccc4OC)n3)n2)n1 [Ligand L29, 6,6″-Bis(2-methoxyphenyl)-2,2′:6′:2″-terpyridine] |  |  |  | Lightness Y [7]: 66.9
CC(=O)N(CCN(C(C)=O)C(C)=O)C(C)=O [N,N′-tetraacetylethylenediamine (TAED), N,N,N′,N′-tetraacetylethylenediamine] |  |  |  | Difference (rating minus rating of reference) [8]: 2.9; Rating ([8]; scale 1 to 10): 6.8 (3.9)
